Patent EP0086647A2, “Pyrimidone compounds, their preparation, and pharmaceutical compositions containing them” (YAMANOUCHI PHARMACEUTICAL CO. LTD., priority 1982, dated 1983)
Where a name gives a salt, the structure may show the parent alone.

How the values were obtained:
gastric acid secretion = assay: Acid inhibition, Shay (4hr.) / (Dog), results table; format: in vivo
[1] = Cytoprotective action (animal experiment methods, not described); format: in vivo; set-up: key: *: These compounds also have cytoprotective action

Compound	Acid Inhibition Shay(4hr.) (mg./kg.) (Dog) (gastric acid secretion; dose 3mg (mg./kg.))	Acid Inhibition Shay(4hr.) (mg./kg.) (Dog) (gastric acid secretion; dose 0.1mg (mg./kg.))	cytoprotective action [1]
CCN(CC)CCCc1c(C)[nH]c(CCSCc2csc(N=C(N)N)n2)nc1=O [Example 17, 2-(2-[[[2-((diaminomethylene)amino)-4-t:hiazolyl]methyl]-thio]ethyl]-5-(3-diethylaminopropyl)-6-methyl-4(1H)-pyrimidone tri-hydrochloride]	83%(3mg)	–	–
CCc1c(C)[nH]c(CCSCc2csc(N=C(N)N)n2)nc1=O [Example 27, 2-[2-[[[2-[(diaminomethylene)amino)-4-thiazolyl]methyl]thio]-ethyl]-5-ethyl-6-methyl-4(1H)-pyrimidone]	–	90%(0.1mg)	–
CCCc1c(C)[nH]c(CCSCc2csc(N=C(N)N)n2)nc1=O [Example 28]	–	60%(0.1mg)	–
C#CCc1c(C)[nH]c(CCSCc2csc(N=C(N)N)n2)nc1=O [Example 29, 2-[2-[[[2-[(diaminomethylene)amino]-4-thiazolyl]methyl]thio]-ethyl]-6-methyl-5-(2-propinyl)-4(1H)-pyrimidone]	–	95%(0.1mg)	–
CCCCc1c(C)[nH]c(CCSCc2csc(N=C(N)N)n2)nc1=O [Example 30, 2-[2-[[[2-[(diaminomethylene)amino]-4-thiazolyl]methyl]thio]-ethyl]-5-n-butyl-6-methy-1-4(1H)-pyrimidone di-hydrochloride]	–	70%(0.1mg)	R=butyl*
CCCCCc1c(C)[nH]c(CCSCc2csc(N=C(N)N)n2)nc1=O.Cl.Cl [Example 31, 2-[2-[[[2-[(diaminomethylene)amino]-4-thiazolyl]methyl]thio]-ethyl]-6-methyl-5-n-pentyl-4(1H)-pyrimidone di-hydrochloride]	–	95%(0.1mg)	R=amyl*
Cc1[nH]c(CCSCc2csc(N=C(N)N)n2)nc(=O)c1CCC(C)C [Example 32, 2-[2-[[[2-[(diaminomethylene)amino]-4-thiazolyl]methyl]thio]-ethyl)-6-methyl-5-(3-methylbutyl)-4(lH)-pyrimidone di-hydrochloride]	–	–	R=iso-amyl*
